{"source": "paper PMC10041534", "about": "“Development of Fluorescent 4-[4-(3H-Spiro[isobenzofuran-1,4′-piperidin]-1′-yl)butyl]indolyl Derivatives as High-Affinity Probes to Enable the Study of σ Receptors via Fluorescence-Based Techniques” (Journal of Medicinal Chemistry, 2023)", "key": {"[1]": {"target": "σ1 receptor", "details": "Figure 1 reference compounds and fluorescent ligands; cited from earlier work"}, "[2]": {"target": "T1, σ2 receptor (Homo sapiens, UniProt Q5BJF2)", "T1 sequence (Q5BJF2 whole entry)": "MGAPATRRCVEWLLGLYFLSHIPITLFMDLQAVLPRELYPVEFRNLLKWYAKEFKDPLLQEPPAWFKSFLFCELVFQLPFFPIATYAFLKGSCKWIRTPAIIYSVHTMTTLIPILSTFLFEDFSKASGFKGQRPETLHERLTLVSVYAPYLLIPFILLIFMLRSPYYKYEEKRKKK", "assay": "Flow cytometry σ2 receptor binding assay with fluorescent ligand in place of the radioligand, MCF7 cells", "parameters": "This cell line was selected on the basis of its high σ2 receptor expression levels; endogenous in cells; host or cells: MCF7 (and MCF7KO, partial TMEM97 knockdown by shRNA)", "experimental": "Similarly, 2 × 10^5 MCF7 cells/well were seeded in a 12-well plate and allowed to recover for 24 h at 37 °C.\nAt the end of the incubation periods, cells were washed twice with PBS, detached with 200 mL of Cell Dissociation Solution (Sigma Chemical Co.) for 10 min at 37 °C, centrifuged at 13000g for 5 min, and resuspended in 500 mL of PBS. The fluorescence was recorded using a Bio-Guava easyCyte 5 Flow Cytometry System (Millipore, Billerica, MA), with a 530 nm band-pass filter. For each analysis, 50000 events were collected and analyzed with the InCyte software (Millipore)."}, "[3]": {"target": "σ2 receptor", "details": "cited from earlier work"}, "[4]": {"target": "T2, σ2 receptor (Rattus norvegicus, UniProt Q5U3Y7)", "T2 construct": "from tissue; host or cells: rat liver (Wistar Hannover rats, Envigo)", "T2 sequence (Q5U3Y7 1-176)": "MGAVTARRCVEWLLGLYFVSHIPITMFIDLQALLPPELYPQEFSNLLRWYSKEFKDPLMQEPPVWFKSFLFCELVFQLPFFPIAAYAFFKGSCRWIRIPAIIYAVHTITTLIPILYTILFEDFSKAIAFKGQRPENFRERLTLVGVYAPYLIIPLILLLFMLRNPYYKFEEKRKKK", "assay": "σ2 receptor radioligand binding assay with [3H]DTG, rat liver membranes", "details": "for σ2 selectivity over σ1: from Ki values at σ1 and σ2; for Ki: [3H]DTG with 1 μM (+)-pentazocine, rat liver membranes, mean of at least two experiments in duplicate, read-out: Ki ± SEM σ2", "protocol": "(§1) All of the procedures for the binding assays were previously described. σ1 and σ2 receptor binding assays were carried out according to the literature.[25] […] Incubations were stopped by addition of 1 mL of ice-cold buffer [50 mM TRIS (pH 8.0)], and then the suspension was filtered through GF/B presoaked in 0.3% polyethylenimine (PEI) for at least 60 min prior to use. The filters were washed twice with 1 mL of ice-cold buffer. […] Incubations were stopped by addition of 1 mL of ice-cold buffer [50 mM TRIS (pH 8.0)], and then the suspension was filtered through GF/B presoaked in 0.5% polyethylenimine (PEI) for at least 60 min prior to use. The filters were washed twice with 1 mL of ice-cold buffer. […] Scatchard parameters (Kd and Bmax) and apparent inhibition constants (Ki) were determined by nonlinear curve fitting using GraphPad Prism (version 5.0).[64]"}, "[5]": {"target": "T3, σ1 receptor (Cavia porcellus, UniProt Q60492)", "T3 construct": "from tissue; host or cells: guinea pig brain without cerebellum (male Dunkin guinea pigs, Envigo)", "T3 sequence (Q60492 whole entry)": "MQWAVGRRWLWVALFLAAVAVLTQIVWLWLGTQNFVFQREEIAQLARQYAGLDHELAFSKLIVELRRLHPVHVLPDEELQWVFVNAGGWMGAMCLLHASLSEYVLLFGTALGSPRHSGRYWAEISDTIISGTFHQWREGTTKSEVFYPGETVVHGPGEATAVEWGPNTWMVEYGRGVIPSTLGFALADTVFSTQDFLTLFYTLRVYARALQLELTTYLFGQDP", "assay": "σ1 receptor radioligand binding assay with (+)-[3H]pentazocine, guinea pig brain membranes", "details": "mean of at least two experiments in duplicate, read-out: Ki ± SEM σ1", "protocol": "as §1"}, "[6]": {"target": "T1, σ2 receptor", "assay": "Flow cytometry studies in MCF7 and MCF7KO cells", "type": "cell-based", "parameters": "This cell line was selected on the basis of its high σ2 receptor expression levels; endogenous in cells; host or cells: MCF7 (and MCF7KO, partial TMEM97 knockdown by shRNA)", "details": "flow cytometry, data not shown", "protocol": "Subsequently, the cells were harvested by trypsinization and resuspended in 250 μL of FACS-PBS. The fluorescence intensity was measured by flow cytometry using a BD LSRFortessaTM X-20 cell analyzer (Becton Dickinson, Palo Alto, CA). For this, in total 20000 cells per sample were evaluated. The results were analyzed and quantified using BD FACSDivaTM software."}, "[7]": {"assay": "Fluorescence spectroscopy and quantum yield measurements", "type": "physicochemical"}, "[8]": {"details": "Figure 1 reference compounds and fluorescent ligands, read-out: σ2 Ki"}}, "note": "“And” between values parts separate entries of the source, which are not always exact repeats. Equal entries are not always repeated. Where two headings read alike, the source gives them in different places. Marks after values point to notes of the source that are not given here."}
{"smiles": "COc1cc2c(cc1OC)CN(CCCN1CCc3c(OC)cccc3C1=O)CC2", "note": "[Compound 2]", "values": [{"measurement": "Ki", "setting": "[1]", "result": 2.44, "unit": "µM"}, {"measurement": "Ki", "setting": "[2]; displacement of compound 19 (100 nM)", "result": 0.00407, "unit": "µM"}, {"measurement": "Ki", "setting": "[2]; displacement of compound 29 (100 nM)", "result": 0.00504, "unit": "µM"}, {"measurement": "Ki", "setting": "[3]; [8]", "result": 0.00424, "unit": "µM"}]}
{"smiles": "COc1cc2c(cc1OC)CN(CCCN1CCc3c(OCCCCCCN4C(=O)c5ccc(N(C)C)cc5C4=O)cccc3C1=O)CC2", "note": "[Compound 3]", "values": [{"measurement": "Ki", "setting": "[1]", "result": "> 5", "unit": "µM"}]}
{"smiles": "CC1CCN(CCCCc2cccc3cc(OCCCCCCN4C(=O)c5ccc(N(C)C)cc5C4=O)ccc23)CC1", "note": "[Compound 5]", "values": [{"measurement": "Ki", "setting": "[1]", "result": 0.0052, "unit": "µM"}, {"measurement": "Ki", "setting": "[3]; [8]", "result": 0.0456, "unit": "µM"}]}
{"smiles": "c1ccc2c(c1)COC21CCN(CCCCn2ccc3ccccc32)CC1", "note": "[Compound 8, reference compound]", "values": [{"measurement": "σ2 selectivity over σ1", "setting": "[4]", "result": 60, "unit": "fold"}, {"measurement": "Ki", "setting": "[3]; [8]", "result": 0.00043, "unit": "µM"}]}
{"smiles": "CN(C)c1ccc2c(c1)C(=O)N(CCCn1cc(CCCCN3CCC4(CC3)OCc3ccccc34)c3ccccc31)C2=O", "note": "[Compound 16, 2-(3-{3-[4-(3H-Spiro[isobenzofuran-1,4′-piperidin]-1′-yl)butyl]-1H-indol-1-yl}propyl)-5-(dimethylamino)isoindoline-1,3-dione]", "values": [{"measurement": "Ki", "setting": "[4]", "result": "0.0101 ± 0.0011", "unit": "µM"}, {"measurement": "σ2 selectivity over σ1", "setting": "[4]", "result": "3–10 fold"}, {"measurement": "Ki", "setting": "[5]", "result": "0.0393 ± 0.009", "unit": "µM"}, {"measurement": "signals in MCF7 cells", "setting": "[6]", "result": "dose-dependent signals"}, {"measurement": "signals in MCF7 cells upon administration of 2", "setting": "[6]", "result": "abated"}, {"measurement": "quantum yield", "setting": "[7]; CHCl3", "result": 6.85, "unit": "%"}, {"measurement": "λem", "setting": "[7]; CHCl3", "result": 490, "unit": "nm"}, {"measurement": "λex", "setting": "[7]; CHCl3", "result": 395, "unit": "nm"}]}
{"smiles": "CN(C)c1ccc2c(c1)C(=O)N(CCCCCCn1cc(CCCCN3CCC4(CC3)OCc3ccccc34)c3ccccc31)C2=O", "note": "[Compound 17, 2-(6-{3-[4-(3H-Spiro[isobenzofuran-1,4′-piperidin]-1′-yl)butyl]-1H-indol-1-yl}hexyl)-5-(dimethylamino)isoindoline-1,3-dione]", "values": [{"measurement": "Ki", "setting": "[4]", "result": "0.00384 ± 0.0008", "unit": "µM"}, {"measurement": "σ2 selectivity over σ1", "setting": "[4]", "result": "3–10 fold"}, {"measurement": "Ki", "setting": "[5]", "result": "0.0381 ± 0.0052", "unit": "µM"}, {"measurement": "signals in MCF7 cells", "setting": "[6]", "result": "dose-dependent signals"}, {"measurement": "signals in MCF7 cells upon administration of 2", "setting": "[6]", "result": "abated"}, {"measurement": "quantum yield", "setting": "[7]; CHCl3", "result": "6.85% and 6.80%"}, {"measurement": "λem", "setting": "[7]; CHCl3", "result": 490, "unit": "nm"}, {"measurement": "λex", "setting": "[7]; CHCl3", "result": 395, "unit": "nm"}]}
{"smiles": "O=C(COc1ccc(-c2ccc3n2[B-](F)(F)[N+]2=C(c4cccs4)C=CC2=C3)cc1)NCCCCCCn1cc(CCCCN2CCC3(CC2)OCc2ccccc23)c2ccccc21", "note": "[Compound 18, N-(6-{3-[4-(3H-Spiro[isobenzofuran-1,4′-piperidin]-1′-yl)butyl]-1H-indol-1-yl}hexyl)-2-{4-[5,5-difluoro-7-(thiophen-2-yl)-5H-5λ^4,6λ^4-dipyrrolo[1,2-c:2′,1′-f][1,3,2]diazaborinin-3-yl]phenoxy}acetamide]", "values": [{"measurement": "Ki", "setting": "[4]", "result": "0.22 ± 0.012", "unit": "µM"}, {"measurement": "Ki", "setting": "[5]", "result": "0.473 ± 0.03", "unit": "µM"}, {"measurement": "λem", "setting": "[7]; dissolved in CH3OH", "result": "630 ^b nm"}, {"measurement": "λex", "setting": "[7]; dissolved in CH3OH", "result": "587 ^b nm"}]}
{"smiles": "C[N+]1=C(/C=C/C=C/C=C/C=C2\\N(CCCCCC(=O)NCCCCCCn3cc(CCCCN4CCC5(CC4)OCc4ccccc45)c4ccccc43)c3ccccc3C2(C)C)C(C)(C)c2ccccc21.[I-]", "note": "[Compound 20, 2-{(1E,3E,5E)-7-[(E)-1-{6-[(6-{3-[4-(3H-Spiro[isobenzofuran-1,4′-piperidin]-1′-yl)butyl]-1H-indol-1-yl}hexyl)amino]-6-oxohexyl}-3,3-dimethylindolin-2-ylidene]hepta-1,3,5-trien-1-yl}-1,3,3-trimethyl-3H-indol-1-ium]", "values": [{"measurement": "Ki", "setting": "[4]", "result": "0.0398 ± 0.0042", "unit": "µM"}, {"measurement": "Ki", "setting": "[5]", "result": "0.0888 ± 0.0151", "unit": "µM"}, {"measurement": "quantum yield", "setting": "[7]; CHCl3", "result": 39.08, "unit": "%"}, {"measurement": "λem", "setting": "[7]; CHCl3", "result": 787, "unit": "nm"}, {"measurement": "λex", "setting": "[7]; CHCl3", "result": 762, "unit": "nm"}]}
{"smiles": "CN(C)c1ccc2c(c1)C(=O)N(c1ccc3ccn(CCCCN4CCC5(CC4)OCc4ccccc45)c3c1)C2=O", "note": "[Compound 23, 2-{1-[4-(3H-Spiro[isobenzofuran-1,4′-piperidin]-1′-yl)butyl]-1H-indol-6-yl}-5-(dimethylamino)isoindoline-1,3-dione]", "values": [{"measurement": "Ki", "setting": "[4]", "result": "0.00507 ± 0.00107", "unit": "µM"}, {"measurement": "σ2 selectivity over σ1", "setting": "[4]", "result": 60, "unit": "fold"}, {"measurement": "Ki", "setting": "[5]", "result": "0.296 ± 0.071", "unit": "µM"}, {"measurement": "signals in MCF7 cells", "setting": "[6]", "result": "dose-dependent signals"}, {"measurement": "signals in MCF7 cells upon administration of 2", "setting": "[6]", "result": "abated"}, {"measurement": "quantum yield", "setting": "[7]; CHCl3", "result": 1.31, "unit": "%"}, {"measurement": "λem", "setting": "[7]; CHCl3", "result": 490, "unit": "nm"}, {"measurement": "λex", "setting": "[7]; CHCl3", "result": 395, "unit": "nm"}]}
{"smiles": "O=C(COc1ccc(C2=[N+]3C(=Cc4ccc(-c5cccs5)n4[B-]3(F)F)C=C2)cc1)Nc1ccc2ccn(CCCCN3CCC4(CC3)OCc3ccccc34)c2c1", "note": "[Compound 28, N-{1-[4-(3H-Spiro[isobenzofuran-1,4′-piperidin]-1′-yl)butyl]-1H-indol-6-yl}-2-{4-[5,5-difluoro-7-(thiophen-2-yl)-5H-5λ^4,6λ^4-dipyrrolo[1,2-c:2′,1′-f][1,3,2]diazaborinin-3-yl]phenoxy}acetamide]", "values": [{"measurement": "Ki", "setting": "[5]", "result": "> 5", "unit": "µM"}, {"measurement": "λem", "setting": "[7]; dissolved in CH3OH", "result": "630 ^b nm"}, {"measurement": "λex", "setting": "[7]; dissolved in CH3OH", "result": "587 ^b nm"}]}
{"smiles": "C[N+]1=C(/C=C/C=C/C=C/C=C2/N(CCCCCC(=O)Nc3ccc4ccn(CCCCN5CCC6(CC5)OCc5ccccc56)c4c3)c3ccccc3C2(C)C)C(C)(C)c2ccccc21.[I-]", "note": "[Compound 30, 2-[(1E,3E,5E)-7-{(Z)-1-[6-({1-[4-(3H-Spiro[isobenzofuran-1,4′-piperidin]-1′-yl)butyl]-1H-indol-6-yl}amino)-6-oxohexyl]-3,3-dimethylindolin-2-ylidene}hepta-1,3,5-trien-1-yl]-1,3,3-trimethyl-3H-indol-1-ium]", "values": [{"measurement": "Ki", "setting": "[4]", "result": "0.0394 ± 0.0061", "unit": "µM"}, {"measurement": "σ2 selectivity over σ1", "setting": "[4]", "result": "~10", "unit": "fold"}, {"measurement": "Ki", "setting": "[5]", "result": "0.569 ± 0.085", "unit": "µM"}, {"measurement": "quantum yield", "setting": "[7]; CHCl3", "result": 40.24, "unit": "%"}, {"measurement": "λem", "setting": "[7]; CHCl3", "result": 787, "unit": "nm"}, {"measurement": "λex", "setting": "[7]; CHCl3", "result": 762, "unit": "nm"}]}
{"smiles": "CC1CCN(CCOc2ccc(Cl)cc2)CC1", "note": "[Compound 31, 1-[2-(4-chlorophenoxy)ethyl]-4-methylpiperidine]", "values": [{"measurement": "Ki", "setting": "[3]; read-out: Ki at the σ2 receptor", "result": 0.239, "unit": "µM"}]}
